The text below walks through data of patent publication US11851426B2, “Bicyclic amines as CDK2 inhibitors” (Incyte Corporation, priority 2019, dated 2023).

The target of the experiment is CDK2/Cyclin E1 (Homo sapiens (Human), UniProt P24941). As to the kind of experiment: CDK2/Cyclin E1 HTRF enzyme activity assay. It counts as biochemical. To be noted: 1 mM ATP; CDK2/Cyclin E1 0.25 nM; 60 minutes at room temperature. In short, it runs like this:
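HTRF read-out of 4E-BP1 (Thr37/46) peptide phosphorylation (ULight peptide 50 nM) by 0.25 nM baculovirus-made GST-CDK2/FLAG-Cyclin E1, with ATP at 50 μM or 1 mM, 60 min at room temperature, pH 7.5. Eu-anti-phospho antibody with EDTA quench; IC50 fitted by three- or four-parameter dose-response.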
(TR-FRET usually uses a lanthanide donor and a delayed reading to cut background.)
In turn, `C[C@@H]1CN(S(C)(=O)=O)CC[C@@H]1Nc1nc2ccc(-c3cn[nH]c3)c(OCC3CCC3)n2n1` [Example 76, 5-(Cyclobutylmethoxy)-N-((3R,4S)-3-methyl-1-(methylsulfonyl)piperidin-4-yl)-6-(1H-pyrazol-4-yl)-[1,2,4]triazolo[1,5-a]pyridin-2-amine] had an IC50 of at most 20 nM.

In turn, `C[C@@H]1CN(S(C)(=O)=O)CC[C@@H]1Nc1nc2ccc(-c3cn[nH]c3)c(OCC3CCCC3)n2n1` [Example 77, 5-(Cyclopentylmethoxy)-N-((3R,4S)-3-methyl-1-(methylsulfonyl)piperidin-4-yl)-6-(1H-pyrazol-4-yl)-[1,2,4]triazolo[1,5-a]pyridin-2-amine] came in with an IC50 of at most 20 nM.

In the case of `CCCOc1c(-c2cn[nH]c2)ccc2nc(NC3CCN(S(C)(=O)=O)CC3)nn12` [Example 78, N-(1-(Methylsulfonyl)piperidin-4-yl)-5-propoxy-6-(1H-pyrazol-4-yl)-[1,2,4]triazolo[1,5-a]pyridin-2-amine], the IC50 was at most 20 nM.

The compound `CC(C)COc1c(-c2cn[nH]c2)ccc2nc(NC3CCN(S(C)(=O)=O)CC3)nn12` [Example 79, 5-Isobutoxy-N-(1-(methylsulfonyl)piperidin-4-yl)-6-(1H-pyrazol-4-yl)-[1,2,4]triazolo[1,5-a]pyridin-2-amine] came in with an IC50 of at most 20 nM.

Regarding `CS(=O)(=O)N1CCC(Nc2nc3ccc(-c4cn[nH]c4)c(OCC(F)F)n3n2)CC1` [Example 80, 5-(2,2-Difluoroethoxy)-N-(1-(methylsulfonyl)piperidin-4-yl)-6-(1H-pyrazol-4-yl)-[1,2,4]triazolo[1,5-a]pyridin-2-amine], the IC50 was at most 20 nM.

In turn, `CS(=O)(=O)N1CCC(Nc2nc3ccc(-c4cn[nH]c4)c(OCC(F)(F)C(F)F)n3n2)CC1` [Example 81, N-(1-(Methylsulfonyl)piperidin-4-yl)-6-(1H-pyrazol-4-yl)-5-(2,2,3,3-tetrafluoropropoxy)-[1,2,4]triazolo[1,5-a]pyridin-2-amine] displayed an IC50 of at most 20 nM.

The compound `CS(=O)(=O)N1CCC(Nc2nc3ccc(-c4cn[nH]c4)c(OCC4CC4)n3n2)CC1` [Example 82, 5-(Cyclopropylmethoxy)-N-(1-(methylsulfonyl)piperidin-4-yl)-6-(1H-pyrazol-4-yl)-[1,2,4]triazolo[1,5-a]pyridin-2-amine] came in with an IC50 of at most 20 nM.

`C[C@@H]1CN(S(C)(=O)=O)CC[C@@H]1Nc1nc2ccc(-c3cn[nH]c3)c(N3CCCCC3)n2n1` [Example 83, N-((3R,4S)-3-Methyl-1-(methylsulfonyl)piperidin-4-yl)-5-(piperidin-1-yl)-6-(1H-pyrazol-4-yl)-[1,2,4]triazolo[1,5-a]pyridin-2-amine] came in with an IC50 of at most 20 nM.

Turning to `CCS(=O)(=O)N1CC[C@H](Nc2nc3ccc(-c4cn[nH]c4)c(N4CCCCC4)n3n2)[C@H](C)C1` [Example 84, N-((3R,4S)-1-(Ethylsulfonyl)-3-methylpiperidin-4-yl)-5-(piperidin-1-yl)-6-(1H-pyrazol-4-yl)-[1,2,4]triazolo[1,5-a]pyridin-2-amine], the half-maximal inhibitory concentration (IC50) is at most 20 nM.

On to `C[C@@H]1CN(S(=O)(=O)C2CC2)CC[C@@H]1Nc1nc2ccc(-c3cn[nH]c3)c(N3CCCCC3)n2n1` [Example 85, N-((3R,4S)-1-(Cyclopropylsulfonyl)-3-methylpiperidin-4-yl)-5-(piperidin-1-yl)-6-(1H-pyrazol-4-yl)-[1,2,4]triazolo[1,5-a]pyridin-2-amine], for which the concentration for half-maximal inhibition (IC50) is at most 20 nM.

Compound `C[C@@H]1CN(S(=O)(=O)c2cn(C)cn2)CC[C@@H]1Nc1nc2ccc(-c3cn[nH]c3)c(N3CCCCC3)n2n1` [Example 86, N-((3R,4S)-3-Methyl-1-((1-methyl-1H-imidazol-4-yl)sulfonyl)piperidin-4-yl)-5-(piperidin-1-yl)-6-(1H-pyrazol-4-yl)-[1,2,4]triazolo[1,5-a]pyridin-2-amine] yielded a half-maximal inhibitory concentration (IC50) of at most 20 nM.

As usually defined, the IC50 is the point on the concentration scale where inhibition reaches its midpoint. Low values mean higher potency, high ones lower potency.
